pIC50: −log10 of the molar value.
What was measured:
[1] = target: Tyrosine-protein kinase JAK1 (Homo sapiens, UniProt P23458); assay: Inhibition of human JAK1 kinase domain using biotin-Lyn-substrate-2 as substrate incubated for 1 hr by ELISA method
[2] = Intrinsic clearance in rat liver microsomes at 0.2 uM in presence of NADPH generating system by LC/MS/MS method; type: ADME; conditions: read-out: CLH
[3] = target: Tyrosine-protein kinase JAK2 (Homo sapiens, UniProt O60674); assay: Inhibition of human JAK2 kinase domain using biotin-Lyn-substrate-2 as substrate incubated for 1 hr by ELISA method
Sequence of Tyrosine-protein kinase JAK2 (O60674 whole entry, the tested form may be a part): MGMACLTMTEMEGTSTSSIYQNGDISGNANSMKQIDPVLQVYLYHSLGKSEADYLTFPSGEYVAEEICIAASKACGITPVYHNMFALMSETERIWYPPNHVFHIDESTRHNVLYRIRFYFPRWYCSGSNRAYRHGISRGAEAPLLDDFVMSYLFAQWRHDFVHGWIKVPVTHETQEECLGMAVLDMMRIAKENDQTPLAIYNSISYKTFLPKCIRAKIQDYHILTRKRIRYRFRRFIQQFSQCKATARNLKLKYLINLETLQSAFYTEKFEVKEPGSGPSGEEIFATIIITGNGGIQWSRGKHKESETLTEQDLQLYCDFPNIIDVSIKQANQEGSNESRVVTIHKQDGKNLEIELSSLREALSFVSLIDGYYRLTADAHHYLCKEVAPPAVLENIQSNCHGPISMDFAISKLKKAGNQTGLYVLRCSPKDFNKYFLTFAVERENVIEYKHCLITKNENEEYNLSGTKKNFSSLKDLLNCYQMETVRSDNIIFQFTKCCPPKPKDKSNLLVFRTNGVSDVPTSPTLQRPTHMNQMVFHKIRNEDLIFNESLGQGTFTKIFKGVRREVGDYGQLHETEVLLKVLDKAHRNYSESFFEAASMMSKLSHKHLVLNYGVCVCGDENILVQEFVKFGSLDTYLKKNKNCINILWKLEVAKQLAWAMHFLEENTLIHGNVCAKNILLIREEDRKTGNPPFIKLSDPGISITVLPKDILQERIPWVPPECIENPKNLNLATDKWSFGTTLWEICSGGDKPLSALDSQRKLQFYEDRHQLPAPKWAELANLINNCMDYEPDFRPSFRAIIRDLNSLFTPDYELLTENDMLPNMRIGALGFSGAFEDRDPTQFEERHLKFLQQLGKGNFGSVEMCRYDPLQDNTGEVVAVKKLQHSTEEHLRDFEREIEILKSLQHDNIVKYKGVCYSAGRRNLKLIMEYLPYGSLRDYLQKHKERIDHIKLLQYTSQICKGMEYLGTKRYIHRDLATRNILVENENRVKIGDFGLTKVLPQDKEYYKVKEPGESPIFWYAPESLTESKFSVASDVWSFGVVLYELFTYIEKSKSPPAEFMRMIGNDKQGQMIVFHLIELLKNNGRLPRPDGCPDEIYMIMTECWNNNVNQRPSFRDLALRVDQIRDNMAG

[4] = target: Voltage-gated inwardly rectifying potassium channel KCNH2 (Homo sapiens, UniProt Q12809)
Sequence of Voltage-gated inwardly rectifying potassium channel KCNH2 (Q12809 whole entry): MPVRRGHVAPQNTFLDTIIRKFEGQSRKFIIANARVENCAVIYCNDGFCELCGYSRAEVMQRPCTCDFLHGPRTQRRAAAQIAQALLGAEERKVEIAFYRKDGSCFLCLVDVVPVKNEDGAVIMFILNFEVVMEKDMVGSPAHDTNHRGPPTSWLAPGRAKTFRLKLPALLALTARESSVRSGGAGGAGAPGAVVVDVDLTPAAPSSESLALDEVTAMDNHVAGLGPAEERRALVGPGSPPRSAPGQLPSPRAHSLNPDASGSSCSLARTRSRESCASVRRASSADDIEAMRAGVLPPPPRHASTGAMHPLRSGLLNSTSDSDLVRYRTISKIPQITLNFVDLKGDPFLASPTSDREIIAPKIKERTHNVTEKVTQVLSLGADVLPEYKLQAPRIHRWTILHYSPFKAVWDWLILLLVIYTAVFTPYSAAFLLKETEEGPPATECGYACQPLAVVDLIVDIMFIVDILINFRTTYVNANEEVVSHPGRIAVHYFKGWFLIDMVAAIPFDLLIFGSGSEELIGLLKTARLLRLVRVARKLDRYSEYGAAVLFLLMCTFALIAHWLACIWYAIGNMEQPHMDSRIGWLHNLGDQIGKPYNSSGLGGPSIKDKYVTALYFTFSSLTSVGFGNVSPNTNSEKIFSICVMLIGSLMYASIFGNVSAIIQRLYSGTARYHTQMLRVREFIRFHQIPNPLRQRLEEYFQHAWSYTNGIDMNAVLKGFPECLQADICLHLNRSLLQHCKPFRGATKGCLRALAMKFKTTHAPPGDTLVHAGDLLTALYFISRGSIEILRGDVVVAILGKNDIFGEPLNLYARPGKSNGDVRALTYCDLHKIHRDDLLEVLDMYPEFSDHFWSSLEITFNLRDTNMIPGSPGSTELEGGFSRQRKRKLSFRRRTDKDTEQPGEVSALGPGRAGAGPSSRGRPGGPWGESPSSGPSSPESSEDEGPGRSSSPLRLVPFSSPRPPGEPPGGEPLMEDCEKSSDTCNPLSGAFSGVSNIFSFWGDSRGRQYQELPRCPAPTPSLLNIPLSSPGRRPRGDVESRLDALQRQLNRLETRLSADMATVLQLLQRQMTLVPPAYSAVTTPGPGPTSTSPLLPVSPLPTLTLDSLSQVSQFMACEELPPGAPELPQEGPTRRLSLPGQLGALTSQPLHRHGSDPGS
Description: Inhibition of human ERG expressed in CHOK1 cells incubated for 10 mins by Rb efflux assay

[5] = Effective permeability of the compound at pH 7.4 by PAMPA method; type: physicochemical; conditions: read-out: Peff
[6] = target: T1, Tyrosine-protein kinase JAK3 (Homo sapiens, UniProt P52333); assay: Inhibition of human JAK3 kinase domain using biotin-Lyn-substrate-2 as substrate incubated for 1 hr by ELISA method
T1 sequence (P52333 whole entry): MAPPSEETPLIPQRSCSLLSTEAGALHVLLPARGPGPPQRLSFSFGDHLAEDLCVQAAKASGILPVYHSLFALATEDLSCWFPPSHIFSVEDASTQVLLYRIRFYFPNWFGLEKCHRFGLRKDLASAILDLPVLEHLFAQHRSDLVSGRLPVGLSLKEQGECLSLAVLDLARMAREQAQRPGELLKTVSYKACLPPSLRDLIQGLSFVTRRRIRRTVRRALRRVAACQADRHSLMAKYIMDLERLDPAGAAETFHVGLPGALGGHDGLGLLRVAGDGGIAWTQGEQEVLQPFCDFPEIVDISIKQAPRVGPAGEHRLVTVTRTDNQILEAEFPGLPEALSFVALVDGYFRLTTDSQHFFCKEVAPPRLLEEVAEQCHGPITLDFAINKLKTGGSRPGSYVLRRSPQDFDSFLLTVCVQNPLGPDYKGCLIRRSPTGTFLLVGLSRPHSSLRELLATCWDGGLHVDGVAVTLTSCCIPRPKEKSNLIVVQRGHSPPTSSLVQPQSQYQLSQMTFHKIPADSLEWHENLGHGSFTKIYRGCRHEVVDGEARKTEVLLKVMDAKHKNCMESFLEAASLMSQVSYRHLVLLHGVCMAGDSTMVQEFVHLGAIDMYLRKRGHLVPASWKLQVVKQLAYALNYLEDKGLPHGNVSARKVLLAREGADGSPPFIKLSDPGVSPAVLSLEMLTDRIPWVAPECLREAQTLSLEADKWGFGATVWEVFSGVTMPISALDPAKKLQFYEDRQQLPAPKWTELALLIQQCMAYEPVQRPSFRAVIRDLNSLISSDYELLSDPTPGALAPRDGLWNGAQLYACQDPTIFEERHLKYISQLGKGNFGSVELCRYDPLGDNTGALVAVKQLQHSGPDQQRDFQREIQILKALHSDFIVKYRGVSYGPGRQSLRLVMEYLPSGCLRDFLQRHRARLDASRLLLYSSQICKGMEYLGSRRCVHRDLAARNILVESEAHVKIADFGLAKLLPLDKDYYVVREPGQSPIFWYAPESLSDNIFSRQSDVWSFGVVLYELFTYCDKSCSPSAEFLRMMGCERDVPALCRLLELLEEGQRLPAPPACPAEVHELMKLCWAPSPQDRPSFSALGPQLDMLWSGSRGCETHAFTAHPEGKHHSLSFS

[7] = Inhibition of JAK1/JAK3 in Lewis rat splenocytes assessed as reduction in IL2-stimulated T-cell proliferation incubated for 3 days by alamar blue dye based fluorescence assay; conditions: 72 h

Sequence of Tyrosine-protein kinase JAK1 (P23458 whole entry, the tested form may be a part): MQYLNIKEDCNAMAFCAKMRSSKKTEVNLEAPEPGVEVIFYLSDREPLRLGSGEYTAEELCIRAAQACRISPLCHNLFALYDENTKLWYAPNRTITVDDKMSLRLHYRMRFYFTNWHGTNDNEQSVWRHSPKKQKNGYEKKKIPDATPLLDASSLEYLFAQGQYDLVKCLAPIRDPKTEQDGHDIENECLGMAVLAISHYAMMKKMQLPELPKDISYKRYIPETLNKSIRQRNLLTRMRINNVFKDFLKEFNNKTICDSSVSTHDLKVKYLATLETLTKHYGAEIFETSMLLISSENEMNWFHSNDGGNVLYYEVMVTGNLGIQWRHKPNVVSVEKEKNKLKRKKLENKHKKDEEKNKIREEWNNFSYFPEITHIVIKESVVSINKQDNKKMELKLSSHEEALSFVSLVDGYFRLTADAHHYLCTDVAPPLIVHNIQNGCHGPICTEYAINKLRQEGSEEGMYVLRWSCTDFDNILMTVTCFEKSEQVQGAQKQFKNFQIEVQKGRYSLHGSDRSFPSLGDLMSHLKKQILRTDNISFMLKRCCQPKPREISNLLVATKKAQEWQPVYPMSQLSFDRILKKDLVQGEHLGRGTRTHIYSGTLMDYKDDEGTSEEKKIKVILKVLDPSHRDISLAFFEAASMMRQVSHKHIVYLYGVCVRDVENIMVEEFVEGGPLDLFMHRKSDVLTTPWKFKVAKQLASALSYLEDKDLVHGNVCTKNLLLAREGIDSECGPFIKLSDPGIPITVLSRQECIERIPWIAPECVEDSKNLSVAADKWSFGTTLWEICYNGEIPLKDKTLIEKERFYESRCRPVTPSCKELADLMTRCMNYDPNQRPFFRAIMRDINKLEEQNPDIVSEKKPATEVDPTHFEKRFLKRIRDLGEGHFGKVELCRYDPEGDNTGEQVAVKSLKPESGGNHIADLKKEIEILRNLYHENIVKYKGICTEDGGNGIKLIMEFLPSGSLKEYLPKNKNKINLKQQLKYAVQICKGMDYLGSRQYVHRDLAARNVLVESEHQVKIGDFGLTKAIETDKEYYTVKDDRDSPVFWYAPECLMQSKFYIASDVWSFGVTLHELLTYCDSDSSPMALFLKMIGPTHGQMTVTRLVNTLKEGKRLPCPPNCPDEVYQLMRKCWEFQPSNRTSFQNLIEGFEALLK

SMILES	pIC50 [1]	CLint scaled at 0.2 µM [2] [mL/min/kg]	pIC50 [3]	pIC50 [4]	Papp [5] [×10⁻⁶ cm/s]	pIC50 [6]	pIC50 [7]
N#Cc1ccc(N2CCC(Nc3c(C(N)=O)cnc4[nH]ccc34)CC2)cc1	7.30	262	7.31	–	–	–	–
N#Cc1cnc(N2CCC(Nc3c(C(N)=O)cnc4[nH]ccc34)CC2)cn1	7.46	–	7.39	< 4.00	< 0.2	8.44	7.11
NC(=O)c1cnc2[nH]ccc2c1NC1CCN(c2ccc(CO)cn2)CC1	6.74	–	7.00	–	–	8.04	–
CS(=O)(=O)N1CCC(Nc2c(C(N)=O)cnc3[nH]ccc23)CC1	–	–	6.72	–	–	6.82	–
C[C@H]1CN(c2ccc(C#N)cn2)CC[C@H]1Nc1c(C(N)=O)cnc2[nH]ccc12 (relative stereo)	7.96	–	7.85	–	–	9.11	–
C[C@@H]1CCCC[C@@H]1Nc1c(C(N)=O)cnc2[nH]ccc12	7.33	> 1000	7.52	–	–	8.29	7.07
NC(=O)c1cnc2[nH]ccc2c1NC1CCN(Cc2ccccc2)CC1	–	–	7.08	–	–	–	–
N#Cc1ccc(N2CC[C@H](Nc3c(C(N)=O)cnc4[nH]ccc34)[C@H](F)C2)nc1	7.57	–	7.77	< 4.00	5	8.77	7.36
CC(=O)N1CCC(Nc2c(C(N)=O)cnc3[nH]ccc23)CC1	–	–	6.19	–	–	6.47	–
N#CCC(=O)N1CCC(Nc2c(C(N)=O)cnc3[nH]ccc23)CC1	6.96	–	6.70	–	–	7.34	–
NC(=O)c1cnc2[nH]ccc2c1NC1CCN(c2ccc(C(F)(F)F)cn2)CC1	–	–	6.43	–	–	7.60	–
NC(=O)c1cnc2[nH]ccc2c1N[C@H]1CCCN(Cc2ccccc2)C1	–	–	6.19	–	–	6.89	–
NC(=O)c1cnc2[nH]ccc2c1N[C@@H]1CCCN(Cc2ccccc2)C1	–	–	6.37	–	–	6.62	–
CN1CCC(Nc2c(C(N)=O)cnc3[nH]ccc23)CC1	6.52	–	6.51	–	–	7.05	–
N#Cc1ccc(N2CCC(Nc3c(C(N)=O)cnc4[nH]ccc34)CC2)nc1	7.80	204	7.74	–	26	8.89	7.57
N#Cc1cccc(CN2CCC(Nc3c(C(N)=O)cnc4[nH]ccc34)CC2)c1	–	–	7.34	–	–	7.60	–
NC(=O)c1ccc(N2CCC(Nc3c(C(N)=O)cnc4[nH]ccc34)CC2)nc1	7.24	–	7.39	–	–	8.28	–
N#Cc1ccc(N2CCC(Nc3c(C(N)=O)cnc4[nH]ccc34)CC2)nn1	7.66	–	7.92	< 4.00	< 0.2	8.92	6.85

— ChEMBL document CHEMBL3593212, “Synthesis and evaluation of novel 1H-pyrrolo[2,3-b]pyridine-5-carboxamide derivatives as potent and orally efficacious immunomodulators targeting JAK3” (Bioorg Med Chem, 2015)
